Reference: publication PMC10376326, “Novel Acylselenourea Derivatives: Dual Molecules with Anticancer and Radical Scavenging Activity” (Antioxidants, 2023)
“Also recorded” adds a separate entry of the source. Where two headings read alike, the source gives them in different places.

Columns and labels:
[1] = test system: MDA-MB-231, HT-29, HTB-54 and DU-145 cancer cell lines; experiment: MTT cell viability assay, statements over the panel of cancer cell lines; type: cell-based, human; details: for IC50: Homo sapiens, span over HTB-54, MDA-MB-231 and DU-145; for cell growth: in at least three of the four cancer cell lines tested
In short: (§1)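 MDA-MB-231, HTB-54 and DU-145 grown in RPMI 1640, HT-29 in McCoy's 5A (10% FBS). Output is % cell growth; IC50 determined; ≥3 experiments in quadruplicate.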

[2] = test system: non-malignant BEAS-2B lung cell line; experiment: MTT cell viability assay, BEAS-2B; type: cell-based; details: Homo sapiens, normal lung, 48 h
Procedure: Cell lines were purchased from the American Type Culture Collection (ATCC). Cell lines MDA-MB-231, HTB-54, DU-145, and BEAS-2B were cultured in RPMI 1640 medium (Gibco, Thermo Fisher Scientific, Gaithersburg, MD, USA) supplemented with 10% fetal bovine serum (FBS; Gibco), 100 units/mL penicillin, and […] streptomycin (Gibco). HT-29 cell line was grown in McCoy’s 5A (Gibco), 10% FBS, 100 units/mL penicillin, and 100 μg/mL streptomycin. Cells were maintained at 37 °C and 5% CO2. The culture medium was changed every three days.
The cell viability of each compound was measured by MTT colorimetric assay. Each compound was dissolved in DMSO at a concentration of 0.01 M. Each compound was tested at two different concentrations (10 and 50 µM) in MDA-MB-231 (breast), HTB-54 (lung), DU-145 (prostate), and HT-29 (colon) human cancer cell lines. Serial dilutions were prepared with supplemented culture medium. […] IC50 and selectivity indexes (SI) were determined.
Briefly, 1 × 10^4 tumor cells per well were grown in 96-well plates for 24 h. Then, these cells were incubated for 48 h with either DMSO (control) or a different concentration of each of the tested compounds. The cell viability was determined by adding 20 μL of MTT two hours and a half before the termination point. After this time, the culture medium was removed. The resulting formazan crystals were dissolved in 50 μL of DMSO, and the absorbance was measured at 570 nm. Results are expressed as % cell growth. The data were obtained from at least three independent experiments performed in quadruplicate.

DU-145 cells [3] = experiment: Annexin V & Dead Cell apoptosis assay; type: cell-based, human; details: DU-145, 10 µM, 24 h
Procedure: Induction of apoptosis was assayed using Annexin V & Dead Cell assay kit and Caspase 3/7 assay kit (EMD Millipore, Darmstadt, Germany). DU-145 cells were seeded in 6-well plates at a density of 6 × 10^5 cells/well and treated either with DMSO (control) or 10 µM of compounds 1.I and 5.I and incubated for 24 h. At the end of treatment, cells were harvested and processed with appropriate staining according to the manufacturer’s protocol. For the Caspase 3/7 assay, cells were stained with 5 μL of Muse™ Caspase 3/7 working solution and incubated at 37 °C for 30 min. After incubation, […] of Muse™ Caspase 7-AAD working solution was added and the samples were incubated for another 5 min at room temperature in the dark. For Annexin V assay, cells were stained with 100 μL pf Muse™ Annexin V & Dead Cell Reagent and incubated for 20 min at room temperature in the dark prior to analysis. Samples were further analyzed on a Muse™ Cell Analyzer (Merck Millipore, Darmstadt, Germany) using Muse™ 1.4 software. Data were obtained from at least two independent experiments.

[4] = test system: DU-145 (prostate) cancer cell line; experiment: MTT cell viability assay, DU-145; type: cell-based, human; details: Homo sapiens, DU-145, 48 h; for activity at 10 µM: read-out: Cell growth %, DU-145, 10 µM, 48 h, MTT; for activity at 50 µM: read-out: Cell growth %, DU-145, 50 µM, 48 h, MTT; for IC50: read-out: IC50 DU-145
In short: as §1

[5] = test system: HTB-54 (lung) cancer cell line; experiment: MTT cell viability assay, HTB-54; type: cell-based, human; details: for activity at 10 µM: read-out: Cell growth %, HTB-54, 10 µM, 48 h, MTT; for activity at 50 µM: read-out: Cell growth %, HTB-54, 50 µM, 48 h, MTT; for SI: IC50 (BEAS-2B)/IC50 (HTB-54)
DU-145 cells [6] = experiment: Protective effects against H2O2-induced oxidative stress in DU-145 cells (MTT); type: cell-based, human; details: for fold increase of cell survival: 0.0015 mg/mL, DU-145 treated with 300, 250 and 200 µM H2O2; for Increase-fold: increase-fold of cell survival
Procedure: Cells were treated with the selected compounds and then oxidative damage to DU-145 cells was induced using different concentrations of H2O2 (200, 250 and 300 µM), and cell viability was assessed by the MTT method. Briefly, 2.5 × 10^4 DU-145 cells per well were added in 96-well plates. After 24 h of incubation, DMSO, 1.I, 2.I, 5.I, 7.II, 10.II, and ascorbic acid were added to each well at two different concentrations (0.0015 mg/mL and 0.0003 mg/mL) and incubated for 1 h. After that, H2O2 was added at the concentrations of 200, 250, and 300 µM, and the cells were incubated for 12 h to induce cell damage. MTT assay was used to measure cell viability. For each treatment, the mean cell viability was calculated from three independent experiments. The DMSO-treated controls were assigned with a cell viability value of 100% (Vcontrol). The results are expressed as a cell growth inhibition % caused by H2O2 and the increased fold of cell survival, as follows: • Cells without compounds, only treated with H2O2: (2) % Cell growth inhibition=Acontrol - Asample/Acontrol × 100
• Cells treated with compounds and H2O2:
(3) % Cell growth inhibition=Asample (compound) - Asample (compound+H2O2)/Acontrol × 100
(4) Increase-fold of cell survival=% cell growth inhibition (H2O2)/% cell growth inhibition (compound+ H2O2)
The standard error of the mean (SEM) was calculated in at least three independent experiments performed in quadruplicates.

[7] = test system: MDA-MB-231 (breast) cancer cell line; experiment: MTT cell viability assay, MDA-MB-231; type: cell-based, human; details: Homo sapiens, MDA-MB-231, 48 h; for activity at 10 µM: read-out: Cell growth %, MDA-MB-231, 10 µM, 48 h, MTT; for activity at 50 µM: read-out: Cell growth %, MDA-MB-231, 50 µM, 48 h, MTT; for IC50: read-out: IC50 MDA-MB-231
In short: as §1

[8] = test system: HT-29 (colon) cancer cell line; experiment: MTT cell viability assay, HT-29; type: cell-based; details: Homo sapiens, HT-29, 48 h, read-out: Cell growth %; for activity at 10 µM: HT-29, 10 µM; for activity at 50 µM: HT-29, 50 µM
In short: as §1

[9] = Homo sapiens, HTB-54, 48 h, read-out: IC50 HTB-54, Lung, MTT, 48 h
[10] = compound 0.0003 mg/mL, 200 µM H2O2, DU-145
[11] = compound 0.0003 mg/mL, 250 µM H2O2, DU-145
[12] = compound 0.0003 mg/mL, 300 µM H2O2, DU-145
[13] = compound 0.0015 mg/mL, 200 µM H2O2, DU-145
[14] = compound 0.0015 mg/mL, 250 µM H2O2, DU-145
[15] = compound 0.0015 mg/mL, 300 µM H2O2, DU-145

SMILES	IC50 [1] [µM]	cell growth [1]	IC50 [2] [µM]	increase of late/dead apoptotic cells with respect to the control (DU-145 cells [3])	viable population reduced by (DU-145 cells [3]) [%]	activity at 10 µM [4] [%]	activity at 50 µM [4] [%]	IC50 [4] [µM]	activity at 10 µM ([5]; Homo sapiens, HTB-54, 48 h) [%]	activity at 50 µM ([5]; Homo sapiens, HTB-54, 48 h) [%]	IC50 [5, 9] [µM]	SI [5]	fold increase of cell survival (DU-145 cells [6])	Increase-fold (DU-145 cells [6]; [10])	Increase-fold (DU-145 cells [6]; [11])	Increase-fold (DU-145 cells [6]; [12])	Increase-fold (DU-145 cells [6]; [13])	Increase-fold (DU-145 cells [6]; [14])	Increase-fold (DU-145 cells [6]; [15])	activity at 10 µM [7] [%]	further results
CCCNC(=[Se])NC(=O)c1ccco1 [Compound 1.I, N-(propylcarbamoselenoyl)furan-2-carboxamide]	7.8 to 15.5	below 55%	> 100	about 25%	37	44.9 ± 4.8	48.7 ± 3.1	9.5 ± 2.5	47.1 ± 14.8	31.6 ± 8.2	< 10	>12.7	doubled cell viability; also recorded: greater two-fold increase of cell survival	2.0 ± 0.0	2.0 ± 0.7	1.8 ± 0.4	2.3 ± 0.7	2.7 ± 0.4	2.3 ± 0.3	46.7 ± 5.6	activity at 50 µM [7]: 38 ± 7.8%; IC50 [7]: 8.8 ± 4.8 µM; activity at 10 µM [8]: 44.2 ± 7.1%; activity at 50 µM [8]: 25.5 ± 4.2%
CCCNC(=[Se])NC(=O)c1ccccc1 [Compound 5.I, N-(propylcarbamoselenoyl)benzamide]	7.8 to 15.5	below 55%	> 100	about 25%	37	42.4 ± 4.9	47.9 ± 3.9	11.5 ± 3.4	36.8 ± 8.6	27.5 ± 6.5	< 10	>11.9	doubled cell viability; also recorded: greater two-fold increase of cell survival	1.9 ± 0.3	1.9 ± 0.4	1.7 ± 0.4	3.1 ± 0.5	2.7 ± 0.3	2.4 ± 0.4	45 ± 12.5	IC50 ([5]; read-out: IC50 HTB-54, Lung, MTT, 48 h): 8.4 ± 3.9 µM; activity at 50 µM [7]: 21.3 ± 11.2%; IC50 [7]: 15.5 ± 6.3 µM; activity at 10 µM [8]: 39.6 ± 14.3%; activity at 50 µM [8]: 21.4 ± 1.5%
